Counter-ions that a name gives are not always drawn. Like-named read-outs stand apart in the source and are kept apart here.
How the values were obtained:
Plasmodium falciparum W2 = experiment: Plasmodium falciparum susceptibility assay, first round (SYBR Green I); format: cell-based
[1] = test system: Plasmodium falciparum 3D7; experiment: as above; format: cell-based
P. falciparum 3D7 = experiment: P. falciparum growth inhibition assay, second round (SYBR Green I, ICEstimator); format: cell-based, Plasmodium falciparum
[2] = W2, first round, 48-h incubation, strain resistant to CQ, sensitive to MQ, read-out: IC50 (nM) Plasmodium falciparum W2 (converted)
[3] = 3D7, first round, 48-h incubation, strain susceptible to CQ, decreased susceptibility to MQ, read-out: IC50 (nM) Plasmodium falciparum 3D7 (converted)
[4] = 48 h, read-out: IC50 (nM) Plasmodium falciparum 3D7 (converted)
[5] = Plasmodium falciparum, 3D7, 48 h

| Structure (SMILES) | IC50 (Plasmodium falciparum W2; [2]) [nM] | IC50 [1, 3] [nM] | further results |
| --- | --- | --- | --- |
| CCN(CC)CCCC(C)Nc1ccnc2cc(Cl)ccc12 (stereo not shown) [CQ, Chloroquine, reference compound] | – | – | IC50 ([1]; 3D7, 48 h, read-out: IC50 (nM) Plasmodium falciparum 3D7): 75.9 ± 3 nM; IC50 (Plasmodium falciparum W2; W2, 48 h, read-out: IC50 (nM) Plasmodium falciparum W2): 199 ± 27 nM |
| CCCCCCNC[C@@H](O)c1cc(-c2ccc(C(F)(F)F)cc2)nc(C(F)(F)F)c1 [Compound 1c, (S)-2-(Hexylamino)-1-(2-(trifluoromethyl)-6-(4-(trifluoromethyl)phenyl)pyridin-4-yl)ethanol] | – | 47.1 ± 13.2 | – |
| CCCCCCCNC[C@@H](O)c1cc(-c2ccc(C(F)(F)F)cc2)nc(C(F)(F)F)c1 [Compound 1e, (S)-2-(Heptylamino)-1-(2-(trifluoromethyl)-6-(4-(trifluoromethyl)phenyl)pyridin-4-yl)ethanol] | 5.6 | 17.7 | – |
| CCCCCCCNC[C@H](O)c1cc(-c2ccc(C(F)(F)F)cc2)nc(C(F)(F)F)c1 [Compound 1f, (R)-2-(Heptylamino)-1-(2-(trifluoromethyl)-6-(4-(trifluoromethyl)phenyl)pyridin-4-yl)ethanol] | 3.5 | 54.4 | – |
| O[C@H](CNCCCC(F)(F)F)c1cc(-c2ccc(C(F)(F)F)cc2)nc(C(F)(F)F)c1 [Compound 1o, (S)-2-((4,4,4-trifluorobutyl)amino)-1-(2-(trifluoromethyl)-6-(4-(trifluoromethyl)phenyl)pyridin-4-yl)ethan-1-ol] | – | – | IC50 (P. falciparum 3D7; [4]): 39.3 ± 5.83 nM; IC50 (P. falciparum 3D7; [5]): < 50 nM |
| O[C@@H](CNCCCC(F)(F)F)c1cc(-c2ccc(C(F)(F)F)cc2)nc(C(F)(F)F)c1 [Compound 1p, (R)-2-((4,4,4-trifluorobutyl)amino)-1-(2-(trifluoromethyl)-6-(4-(trifluoromethyl)phenyl)pyridin-4-yl)ethan-1-ol] | – | – | IC50 (P. falciparum 3D7; [4]): 43 nM; IC50 (P. falciparum 3D7; [5]): < 50 nM |
| O[C@H](CNCCCCCCF)c1cc(-c2ccc(C(F)(F)F)cc2)nc(C(F)(F)F)c1 [Compound 1q, (S)-2-((6-fluorohexyl)amino)-1-(2-(trifluoromethyl)-6-(4-(trifluoromethyl)phenyl)pyridine-4-yl)ethan-1-ol] | – | – | IC50 (P. falciparum 3D7; [4]): 31.4 nM; IC50 (P. falciparum 3D7; [5]): < 50 nM |
| O[C@H](CN[C@H](COCC1CC1)Cc1ccccc1)c1cc(-c2ccc(C(F)(F)F)cc2)nc(C(F)(F)F)c1 [Compound 1u, (S)-2-(((S)-1-(cyclopropylmethoxy)-3-phenylpropan-2-yl)amino)-1-(2-(trifluoromethyl)-6-(4-(trifluoromethyl)phenyl)pyridin-4-yl)ethan-1-ol] | – | – | IC50 (P. falciparum 3D7; [5]): 9.31 ± 2.16 nM |
| CCCCNC[C@@H](O)c1ccc(-c2ccc(C(F)(F)F)cc2)nc1C(F)(F)F [Compound 30a, (S)-2-(Butylamino)-1-(2-(trifluoromethyl)-6-(4-(trifluoromethyl)phenyl)pyridin-3-yl)ethanol] | 132 ± 10.3 | 479 ± 38.2 | – |
| CCCCNC[C@H](O)c1ccc(-c2ccc(C(F)(F)F)cc2)nc1C(F)(F)F [Compound 30b] | 523 | 1380 | – |
| CCCCCNC[C@H](O)c1ccc(-c2ccc(C(F)(F)F)cc2)nc1C(F)(F)F [Compound 30d, (R)-2-(Pentylamino)-1-(2-(trifluoromethyl)-6-(4-(trifluoromethyl)phenyl)pyridin-3-yl)ethanol] | 551 | 558 | – |
| CCCCCCNC[C@@H](O)c1ccc(-c2ccc(C(F)(F)F)cc2)nc1C(F)(F)F [Compound 30e, (S)-2-(Hexylamino)-1-(2-(trifluoromethyl)-6-(4-(trifluoromethyl)phenyl)pyridin-3-yl)ethanol] | 27.2 ± 9.3 | 170 ± 24 | – |
| CCCCCCNC[C@H](O)c1ccc(-c2ccc(C(F)(F)F)cc2)nc1C(F)(F)F [Compound 30f, (R)-2-(Hexylamino)-1-(2-(trifluoromethyl)-6-(4-(trifluoromethyl)phenyl)pyridin-3-yl)ethanol] | 523 | 575 | – |
| CCCCCCCNC[C@@H](O)c1ccc(-c2ccc(C(F)(F)F)cc2)nc1C(F)(F)F [Compound 30g, (S)-2-(Heptylamino)-1-(2-(trifluoromethyl)-6-(4-(trifluoromethyl)phenyl)pyridin-3-yl)ethanol] | 25.2 ± 1.2 | 97 ± 14 | – |
| CCCCCCCNC[C@H](O)c1ccc(-c2ccc(C(F)(F)F)cc2)nc1C(F)(F)F [Compound 30h, (R)-2-(Heptylamino)-1-(2-(trifluoromethyl)-6-(4-(trifluoromethyl)phenyl)pyridin-3-yl) ethanol] | 31.7 | 519 | – |
| O[C@H](CNCCNC(c1ccccc1)c1ccccc1)c1ccc(-c2ccc(C(F)(F)F)cc2)nc1C(F)(F)F [Compound 30i, (S)-2-((2-(Benzhydrylamino)ethyl)amino)-1-(2-(trifluoromethyl)-6-(4-(trifluoromethyl)phenyl)pyridin-3-yl)ethanol] | 248 ± 36 | 32.9 | – |
| O[C@@H](CNCCNC(c1ccccc1)c1ccccc1)c1ccc(-c2ccc(C(F)(F)F)cc2)nc1C(F)(F)F [Compound 30j, (R)-2-((2-(Benzhydrylamino)ethyl)amino)-1-(2-(trifluoromethyl)-6-(4-(trifluoromethyl)phenyl)pyridin-3-yl)ethanol] | 171 | 92.1 | – |
| O[C@H](CNCCCN1CCN(C(c2ccccc2)c2ccccc2)CC1)c1ccc(-c2ccc(C(F)(F)F)cc2)nc1C(F)(F)F [Compound 30o] | 212 ± 38.6 | 111 ± 8.3 | – |
| O[C@@H](CNCCCN1CCN(C(c2ccccc2)c2ccccc2)CC1)c1ccc(-c2ccc(C(F)(F)F)cc2)nc1C(F)(F)F [Compound 30p, (R)-2-((3-(4-Benzhydrylpiperazin-1-yl)propyl)amino)-1-(2-(trifluoromethyl)-6-(4-(trifluoromethyl)phenyl)pyridin-3-yl)ethanol] | 89.6 | 84.9 | – |
| O[C@H](CN[C@H](COCC1CC1)Cc1ccccc1)c1ccc(-c2ccc(C(F)(F)F)cc2)nc1C(F)(F)F [Compound 30u, (S)-2-(((S)-1-(cyclopropylmethoxy)-3-phenylpropan-2-yl)amino)-1-(2-(trifluoromethyl)-6-(4-(trifluoromethyl)phenyl)pyridin-3-yl)ethan-1-ol] | – | – | IC50 (P. falciparum 3D7; [5]): 165 ± 21.9 nM |
| O[C@@H](CN[C@H](COCC1CC1)Cc1ccccc1)c1ccc(-c2ccc(C(F)(F)F)cc2)nc1C(F)(F)F [Compound 30v, (R)-2-(((S)-1-(cyclopropylmethoxy)-3-phenylpropan-2-yl)amino)-1-(2-(trifluoromethyl)-6-(4-(trifluoromethyl)phenyl)pyridin-3-yl)ethan-1-ol] | – | – | IC50 (P. falciparum 3D7; [5]): 896 nM |

More lines, main results first:

| IC50 (Plasmodium falciparum W2; [2]) [nM] | IC50 [1, 3] [nM] | Structure (SMILES) | further results |
| --- | --- | --- | --- |
| 67 ± 9.3 | – | O[C@H](CNCCCN1CCN(C(c2ccccc2)c2ccccc2)CC1)c1cc(-c2ccc(C(F)(F)F)cc2)nc(C(F)(F)F)c1 [1m•HCl, (S)-2-((3-(4-benzhydrylpiperazin-1-yl)propyl)amino)-1-(2-(trifluoromethyl)-6-(4-(trifluoromethyl)phenyl)pyridin-4-yl)ethanol hydrochloride] | – |
| – | 125 | O[C@@H](CNCCCN1CCN(C(c2ccccc2)c2ccccc2)CC1)c1cc(-c2ccc(C(F)(F)F)cc2)nc(C(F)(F)F)c1 [1n•HCl, (R)-2-((3-(4-benzhydrylpiperazin-1-yl)propyl)amino)-1-(2-(trifluoromethyl)-6-(4-(trifluoromethyl)phenyl)pyridin-4-yl)ethanol hydrochloride] | – |
| 7.2 | 41.8 | CCCCCNC[C@H](O)c1cc(-c2ccc(C(F)(F)F)cc2)nc(C(F)(F)F)c1 [Compound 1b, (R)-2-(Pentylamino)-1-(2-(trifluoromethyl)-6-(4-(trifluoromethyl)phenyl)pyridin-4-yl)ethanol] | – |
| 8.3 | 32.3 | CCCCCCNC[C@H](O)c1cc(-c2ccc(C(F)(F)F)cc2)nc(C(F)(F)F)c1 [Compound 1d, (R)-2-(Hexylamino)-1-(2-(trifluoromethyl)-6-(4-(trifluoromethyl)phenyl)pyridin-4-yl)ethanol] | – |
| 13.1 ± 1 | 22.4 ± 2.5 | O[C@H](CNCCNC(c1ccccc1)c1ccccc1)c1cc(-c2ccc(C(F)(F)F)cc2)nc(C(F)(F)F)c1 [Compound 1g, (S)-2-((2-(Benzhydrylamino)ethyl)amino)-1-(2-(trifluoromethyl)-6-(4-(trifluoromethyl)phenyl)pyridin-4-yl)ethanol] | – |
| 5.9 | 25 | O[C@@H](CNCCNC(c1ccccc1)c1ccccc1)c1cc(-c2ccc(C(F)(F)F)cc2)nc(C(F)(F)F)c1 [Compound 1h, (R)-2-((2-Benzhydrylamino)ethylamino)-1-(2-(trifluoromethyl)-6-(4-(trifluoromethyl)phenyl)pyridin-4-yl)ethanol] | – |
| 14.4 | 32.8 | COC[C@H](Cc1ccccc1)NC[C@H](O)c1cc(-c2ccc(C(F)(F)F)cc2)nc(C(F)(F)F)c1 [Compound 1j, (R)-2-(((S)-1-Methoxy-3-phenylpropan-2-yl)amino)-1-(2-(trifluoromethyl)-6-(4-(trifluoromethyl)phenyl)pyridin-4-yl)ethanol] | – |
| – | 126 | O[C@H](CNCCCN1CCN(C(c2ccccc2)c2ccccc2)CC1)c1cc(-c2ccc(C(F)(F)F)cc2)nc(C(F)(F)F)c1 [Compound 1m, (S)-2-((3-(4-benzhydrylpiperazin-1-yl)propyl)amino)-1-(2-(trifluoromethyl)-6-(4-(trifluoromethyl)phenyl)pyridin-4-yl)ethanol] | – |
| 351 ± 50.7 | 65.3 ± 8.4 | COC[C@H](Cc1ccccc1)NC[C@@H](O)c1ccc(-c2ccc(C(F)(F)F)cc2)nc1C(F)(F)F [Compound 30k, (S)-2-(((S)-1-methoxy-3-phenylpropan-2-yl)amino)-1-(2-(trifluoromethyl)-6-(4-(trifluoromethyl)phenyl)pyridin-3-yl)ethanol] | – |
| 258 | 414 | COC[C@H](Cc1ccccc1)NC[C@H](O)c1ccc(-c2ccc(C(F)(F)F)cc2)nc1C(F)(F)F [Compound 30l, (R)-2-(((S)-1-methoxy-3-phenylpropan-2-yl)amino)-1-(2-(trifluoromethyl)-6-(4-(trifluoromethyl)phenyl)pyridin-3-yl)ethanol] | – |

Reference: patent publication US11220482B2, “Aminopyridinemethanol compounds and their use” (UNIVERSITE AMIENS PICARDIE JULES VERNE, priority 2017, dated 2022)
